Consider 14 molecules from patent US20260176249A1, “PROTEIN KINASE INHIBITOR, PREPARATION METHOD THEREFOR, AND APPLICATION THEREOF” (SHANDONG LUYE PHARMACEUTICAL CO., LTD., priority 2021, published 2026).

For data set [1], the system named is HCT116 cells. Briefly: Inhibitory activity on HCT116 cell proliferation (ATPlite). It is filed as cell-based. Particulars: Homo sapiens. The protocol: Cell culture medium: RPMI1640+10% FBS (GBICO)
Cell culture plate: 96-well plate (Shanghai Jingan Biotechnology Co., Ltd.)
Detection kit: ATPlite 1step Luminescence (PerkinElmer)
Detection instrument: BioTek multifunctional microplate reader
2. Test method: HCT116 cells in the logarithmic growth phase were seeded into a white-wall clear-bottom 96-well plate at a density of 720 cells per well, and cultured overnight in a 37° C., 5% CO2 incubator. […] After adding the drug, culturing was continued for 72 h in a 37° C., 5% CO2 incubator.
GraphPad Prism 7.0 was used to process the data, the cell inhibition rate curve was obtained and IC50 was calculated.

Data set [2] has as its target T1, PLK1 kinase (Homo sapiens, UniProt P53350).
T1 construct: purchased Carnabio (Carna Biosciences) 05-157
Briefly: Inhibitory activity on PLK1 kinase. Type of data set: biochemical. The note with it: for Imax: maximum effect caused by the compound at the test concentration. The protocol: Detection solution PerkinElmer #TRF0218-M
Detection instrument PerkinElemer EnVision
a. Using the Echo machine, the compounds to be tested were diluted by 1:3 on a 384-well plate, and the highest concentration was 1 μM, with a total of 10 concentration points, and each concentration was tested in duplicate wells.
b. 5 μL/well of PLK1 kinase and peptide substrate mixture were added to the assay plate (containing controls).
d. The reaction was initiated by adding 5 μL/well of ATP solution;
e. The assay plate was centrifuged at 1000 rpm for about 15 seconds, a film was used to seal the assay plate which was incubated at 23° C. for a period of time;
f. A detection solution was added to all wells of the assay plate;
g. The assay plate was centrifuged at 1000 rpm for approximately 15 seconds, a film was used to seal the assay plate which was incubated at 23° C. for 60 min.
h. The assay plate was read on EnVision. The test results were analyzed using XLFIT5 software.

Data set [3] in a line: Metabolic stability in rat liver microsomes. It is filed as in vitro ADME. Particulars: for CLint scaled at 1 µM / half-life at 1 µM: pH 7.4; for microsomal CLint at 1 µM: pH 7.4, read-out: CLint(mic). The procedure:
(§1) a. Preparation of phosphate buffer: The phosphate buffer powder was dissolved in 100 mL of pure water to prepare a phosphate buffer solution with a pH of 7.4 and a concentration of 100 mM, which was stored in a 4° C. refrigerator for later use.
(§2) b. All samples as well as the reference testosterone were dissolved in DMSO to obtain a 10 mM stock solution. The 10 mM stock solution was diluted to 100 μM with acetonitrile to obtain a working solution for later use.
(§3) c. Preparation of liver microsome working solution: Each of the mouse, rat and human liver microsome stock solutions (at concentration of 20 mg/mL) was taken and diluted to 0.56 mg/mL with 100 mM phosphate buffer solution to obtain the liver microsome working solution.
(§4) d. Preparation of solution: An appropriate amount of MgCl2 was weighed and used to prepare a MgCl2 solution at a concentration of 60 mM using 100 mM phosphate buffer solution. An appropriate amount of NADPH was weighed and used to prepare a NADPH solution at a concentration of 20 mM using 100 mM phosphate buffer solution. An equal volume of 60 mM MgCl2 solution was added to prepare an NADPH working solution containing 10 mM NADPH and 30 mM MgCl2. An acetonitrile solution containing 20 ng/mL tolbutamide was prepared as the stop solution.
(§5) e. Liver microsome incubation: 2 μL of each compound and the positive drug testosterone working solution were added to 178 μL of liver microsome working solution (0.56 mg/mL), mixed gently, and pre-incubated in a vibrating constant temperature water bath pot at 37° C. for 10 min. After adding 20 μL of NADPH working solution, the mixture was placed in a vibrating constant temperature water bath pot at 37° C. and timed incubation was started for 5, 10, 20, 30 and 60 min.
(§6) f. Stopping reaction: After the corresponding time of incubation, 400 μL of stop solution was added to stop the reaction, and then the sample was immediately shaken for 1 min. The sample was centrifuged at 13500 rpm for 10 min at 10° C. After centrifugation, the supernatant was removed, diluted with water according to the needs of each compound, and analyzed by LC-MS. For the 0-minute sample, the stop solution was first added and mixed evenly with the liver microsomes, and then the NADPH working solution was added. For the negative control sample, 20 μL of 30 mM MgCl2 solution was added instead of the NADPH working solution.
(§7) T1/2 and CLint(mic) were calculated by the following formula.
(§8) [formula] [formula] • CLint(mic)=0.693/T1/2/liver microsomal protein concentration during incubation (mg/mL) • CLint(ver)=CLint(mic)*liver microsomal protein (mg)/liver weight (g)*liver weight to body weight ratio
(§9) Liver microsomal protein (mg)/liver weight (g): the value is 45 in both animal and human species.
(§10) Liver weight to body weight ratio: the parameters for mice, rats and humans are 88, 40 and 20 g/kg respectively.
In general terms: Microsomes from liver hold many membrane-bound enzymes, among them those of drug oxidation.

Data set [4] can be described thus: Metabolic stability in human liver microsomes. Type of data set: in vitro ADME. Particulars: for CLint scaled at 1 µM / half-life at 1 µM: pH 7.4; for microsomal CLint at 1 µM: pH 7.4, read-out: CLint(mic). The protocol: as §1, §2, §3, §4, §5, §6, §7, §8, §9, §10
Data set [5] can be described thus: Metabolic stability in mouse liver microsomes. Particulars: for CLint scaled at 1 µM / half-life at 1 µM: pH 7.4; for microsomal CLint at 1 µM: pH 7.4, read-out: CLint(mic). Type of data set: in vitro ADME. The protocol: as §1, §2, §3, §4, §5, §6, §7, §8, §9, §10
Setting [6] is: HCT-116, HCT116 cells, 72 h, read-out: IC50.
[7] abbreviates: PLK1 kinase, highest concentration 1 μM, 10 points, read-out: IC50.

Where two headings read alike, the source gives them in different places.

T1 sequence (P53350 whole entry): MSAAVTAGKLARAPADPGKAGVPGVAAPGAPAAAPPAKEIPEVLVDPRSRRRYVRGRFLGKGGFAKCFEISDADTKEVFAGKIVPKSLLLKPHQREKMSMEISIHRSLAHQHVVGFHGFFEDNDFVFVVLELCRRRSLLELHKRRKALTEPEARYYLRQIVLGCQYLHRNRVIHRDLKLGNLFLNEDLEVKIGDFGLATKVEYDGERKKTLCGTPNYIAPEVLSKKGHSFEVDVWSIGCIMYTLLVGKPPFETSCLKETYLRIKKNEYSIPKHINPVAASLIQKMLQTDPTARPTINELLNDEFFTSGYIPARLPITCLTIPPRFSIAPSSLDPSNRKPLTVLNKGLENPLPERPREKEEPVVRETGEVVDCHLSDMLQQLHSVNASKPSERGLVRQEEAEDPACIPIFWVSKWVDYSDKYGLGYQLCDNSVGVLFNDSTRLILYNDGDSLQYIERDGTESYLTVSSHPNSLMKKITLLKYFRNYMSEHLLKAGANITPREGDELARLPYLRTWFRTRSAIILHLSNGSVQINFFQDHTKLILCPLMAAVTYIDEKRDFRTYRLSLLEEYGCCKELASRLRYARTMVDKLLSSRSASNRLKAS

Consider `CN1CCN(c2ccc(OC(F)(F)F)c(Nc3ncc4ncc5c(C(N)=O)nn(CCO)c5c4n3)c2)CC1` [Compound 6], for which the IC50 in data set [1] (setting [6]) was 2720 nM.
Regarding `CN1CCN(c2ccc(OC(F)(F)F)c(Nc3ncc4ccc5c(C(=O)NO)nn(CCO)c5c4n3)c2)CC1` [Compound 19], in data set [2], the midpoint of inhibition, the IC50, lay at 1.06 nM and the Imax is reported as 99.97%. Moreover, in data set [3], the “60 min remaining amount” value was 11.9%, the Clearance rate entry is recorded as “Medium”, the CLint scaled at 1 µM was 127 mL/min/kg and the half-life at 1 µM came to 19.6 min. The microsomal CLint at 1 µM in data set [3] worked out at 70.8 µL/min/mg. In data set [4], the “60 min remaining amount” value came to 51.9%, the Clearance rate entry is given as “Medium”, the CLint scaled at 1 µM stood at 19.6 mL/min/kg and the half-life at 1 µM worked out at 63.6 min. Besides, the microsomal CLint at 1 µM in data set [4] was 21.8 µL/min/mg. The molecule also came in with an IC50 in data set [1] (HCT-116, 72 h) of 96 nM. Also, in data set [5], the “60 min remaining amount” value is given as 22.0%, the Clearance rate result is listed as “Medium”, the CLint scaled at 1 µM amounted to 192 mL/min/kg and the half-life at 1 µM was found to be 28.5 min. Besides, the microsomal CLint at 1 µM in data set [5] is 48.6 µL/min/mg.
In data set [2], `CN1CCN(c2ccc(OC(F)(F)F)c(Nc3ncc4ccc5c(C(=O)NO)nn(CC(F)(F)F)c5c4n3)c2)CC1` [Compound 32] came in with an IC50 of 0.463 nM and an Imax of 99.87%.
With `CN1CCN(c2ccc(OC(F)(F)F)c(Nc3ncc4c(n3)-c3c(c(C(N)=O)nn3CCO)N(C)C4)c2)CC1` [Compound 5], the IC50 stood at 73.3 nM in data set [2] (setting [7]) and 924 nM in data set [1] (setting [6]). The same molecule showed an Imax in data set [2] of 76.81%.
In data set [2], `CN1CCN(c2ccc(OC(F)(F)F)c(Nc3ncc4ccc5c(C(=O)NOCCO)nn(CCO)c5c4n3)c2)CC1` [Compound 31] returned an IC50 of 1.55 nM and an Imax of 99.54%.
Consider `CN1CCN(c2ccc(OC(F)(F)F)c(Nc3ncc4c(n3)-c3c(c(C(=O)NO)nn3CCF)CC4)c2)CC1` [Compound 17], for which the IC50 in data set [2] (setting [7]) is 0.814 nM. This molecule also had an Imax in data set [2] of 99.97%. Besides, the results for the “60 min remaining amount” value in data set [3], in data set [4] and in data set [5] were 1.93%, 26.0% and 2.46%, respectively. In addition, the Clearance rate result is listed as “High” in data set [3], “Medium” in data set [4] and “High” in data set [5]. Further, the intrinsic metabolic clearance (CLint scaled) at 1 µM in data set [3] (rat) was found to be 410 mL/min/kg; in data set [4] (human), 41.8 mL/min/kg; in data set [5] (mouse), 470 mL/min/kg. Moreover, the figures for the half-life at 1 µM in data set [3] (rat), in data set [4] (human) and in data set [5] (mouse) were 6.08 min, 29.9 min and 11.7 min, respectively. Further, the microsomal CLint at 1 µM in data set [3] (rat) is 228 µL/min/mg; in data set [4] (human) it was 46.4 µL/min/mg; in data set [5] (mouse), 119 µL/min/mg.
For `CN1CCN(c2ccc(OC(F)(F)F)c(Nc3ncc4ccc5c(C(=O)NOCCO)nn(CCF)c5c4n3)c2)CC1` [Compound 30], in data set [2], the 50% inhibitory concentration (IC50) stood at 0.776 nM and the Imax was determined as 99.97%.
`CCn1nc(C(N)=O)c2ccc3cnc(Nc4cc(N5CCN(C)CC5)ccc4OC(F)(F)F)nc3c21` [Compound 29]: the IC50 in data set [1] (HCT-116, 72 h) was determined as 77 nM.
In the case of `CN1CCN(c2ccc(OC(F)(F)F)c(Nc3ncc4ccc5c(C(N)=O)cn(C)c5c4n3)c2)CC1` [Compound 22], the IC50 in data set [2] (setting [7]) came to 1.51 nM. In addition, in data set [2], the Imax came out at 99.99%.
As to `CN1CCN(c2ccc(OC(F)(F)F)c(Nc3ncc4ccc5c(C(N)=O)cn(CCO)c5c4n3)c2)CC1` [Compound 21], in data set [2], the concentration for half-maximal inhibition (IC50) was 0.756 nM and the Imax came to 99.15%.
For `CN1CCN(c2ccc(OC(F)(F)F)c(Nc3ncc4ccc5c(C(N)=O)nn(C6CC6)c5c4n3)c2)CC1` [Compound 27] the same measures were 0.459 nM and 100.24%.
Taken in the same sequence, the figures for `CN1CCN(c2ccc(OC(F)(F)F)c(Nc3ncc4ccc5c(C(N)=O)nn(CC(F)(F)F)c5c4n3)c2)CC1` [Compound 28] were 0.67 nM and 100.08%.
Regarding `C[C@@H](Oc1cc(-n2cnc3ccc(CN4CCN(C)CC4)cc32)sc1C(N)=O)c1ccccc1C(F)(F)F` [GSK461364, reference compound], the Imax in data set [2] is given as 101.08%.
On to `CN1CCN(c2ccc(OC(F)(F)F)c(Nc3ncc4ccc5c(C(=O)NO)nn(CCF)c5c4n3)c2)CC1` [Compound 25], for which, in data set [2], 1.12 nM corresponded to half-maximal inhibition (IC50) and the Imax worked out at 100.23%.

One may read the IC50 as the concentration at which inhibition is half-maximal. For orientation: CLint scaled means the capacity of the preparation to metabolise the compound, expressed as a volume cleared per time. A lower CLint scaled goes with greater metabolic stability. One may read the half-life as the time in which the quantity being followed falls by half. Lower therefore signals rapid decline.
